Measured values from US20120184624A1, “Treatment of Alzheimer's Disease” (priority 2010, published 2012).
Like-named read-outs stand apart in the source and are kept apart here.

Tests used:
[1] = test system: tau; format: cell-based, mouse
Description: (§1) Primary cortical neurons were isolated from brain of wt or transgenic (Mapt^tm1(EGFP)klt Tg(MAPT)8cPdav/J; Jackson Laboratory) embryos at day 14.5. Cortices were collected in DMEM (Lonza) and cells were dissociated by incubation with Trypsin/EDTA for 6.5 min at 37° C. Cells were then diluted in neurobasal medium (Gibco-BRL) containing B27 supplement (Gibco BRL). Cells were plated at a density of 4.0×10^5 onto 0.2 mg/ml poly-D-lysin (Sigma) and 2 μg/ml Laminin (Sigma) coated 12 well plates. Neurons were incubated at 37° C. with 8% CO2. One hour after seeding a complete change of medium was performed. Later on, each 96 hours half volumes of the medium were replaced by fresh medium. After 7 days in culture neurons were treated.
(§2) Cells were incubated with the respective substances as follows: Metformin (Sigma) at final concentrations up to 2.5 mM for 1 to >24 hours, okadaic acid (Sigma) at final concentrations from 1 nM to 10 nM for 4 h, Fostricien (Sigma) at final concentration of 1 μM for 4 h and AICAR (cell signalling) at final concentration of 5 mM for 0.5-16 h. For cell treatment without insulin, medium containing B27+insulin supplement was replaced with medium containing B27-supplement without insulin 24 h before treatment. 3 groups of 2 mice were treated with or without 5 mg/l metformin in the drinking water.
(§3) Cell pellets were homogenized in Magic-Mix (48% UREA, 15 mM Tris-HCL pH 7.5, 8.7% Glycerin, 1% SDS, 0.004% Bromphenolblue, 143 mM Mercaptoethanol), sonicated and boiled for 5 min at 95° C. Proteins were resolved on 8 or 10% SDS gels and blotted onto PVDF-membranes (Roche). Antibodies used in this study were purchased from the following companies: Tau-5 (Biosource), anti-human PHF pSer202 (Thermo scientific), Tau pSer356 (Biosource), Tau pSer262 (Biosource), Tau pSer396 (Sigma), Actin (Sigma), ACC (cell signalling), ACC pSer79 (cell signalling), phospho-S6 ribosomal protein pSer241/244 (cell signalling), p70S6 Kinase (cell signalling), p70S6K pThr421/pSer424 (cell signalling), mTOR (cell signalling), AMPK (cell signallling, AMPK pThr172 (cell singnaling), HRP-anti-rabbit (Amersham), HRP-anti-mouse (Dianova). The resulting bands were quantified using Imagequant5.2. Statistical analyses were performed using SigmaStat software package (v 3.0, SPSS, USA). For timecourse or dose-response studies, data were analyses by one-way ANOVA with post hoc Dunnett's or Bonferonni test to accommodate for multiple comparisons. A Student's t-test was used for two-group comparisons, as appropriate.

[2] = test system: human tau; test: Tau phosphorylation by Western blot in primary cortical neurons of mice expressing human tau; format: cell-based; details: increasing concentration of metformin over 4 hours
Description: as §1
as §2, with “water. […]” for “water.”

[3] = test system: ribosomal protein S6 (S241/244); test: Phosphorylation of ribosomal protein S6 (mTORC1 signalling) in primary neurons from wild-type mice; format: cell-based, mouse
Description: as §1
as §2, with “water. […]” for “water.”

[4] = test system: ribosomal protein S6; test: Phosphorylation of S6 in rat hepatoma cell line H4IIE; format: cell-based; details: 2.5 mM, 16 hours
Description: as §3

[5] = test system: p70S6kinase; test: Phosphorylation of p70S6kinase in primary cortical neurons; format: cell-based, mouse; details: 2.5 mM metformin over increasing time intervals
Description: as §1, §2, §3

[6] = test system: ACC; test: Phosphorylation of the AMPK target ACC (Ser79) in primary cortical neurons; format: cell-based, mouse; details: 2.5 mM metformin, increasing time intervals
Description: as §1
(§4) Cells were incubated with the respective substances as follows: Metformin (Sigma) at final concentrations up to 2.5 mM for 1 to >24 hours, okadaic acid (Sigma) at final concentrations from 1 nM to 10 nM for 4 h, Fostricien (Sigma) at final concentration of 1 μM for 4 h and AICAR (cell signalling) at final concentration of 5 mM for 0.5-16 h. For cell treatment without insulin, medium containing B27+insulin supplement was replaced with medium containing B27-supplement without insulin 24 h before treatment. […]
as §3, with “Proteins were resolved on 8 or 10% SDS gels and blotted onto PVDF-membranes (Roche).” left out, “Statistical analyses were performed using SigmaStat software package (v 3.0, SPSS, USA). For timecourse or dose-response studies, data were analyses by one-way ANOVA with post hoc Dunnett's or Bonferonni test to accommodate for multiple comparisons. A Student's t-test was used for two-group comparisons, as appropriate.” left out

[7] = target: T1, purified PP2Ac (catalytic subunit of PP2A) (Homo sapiens, UniProt P67775); test: PP2A activity assay (malachite green), purified PP2Ac; format: biochemical; details: 10 mM metformin, 1 hour
T1 construct: purchased upstate
T1 sequence (P67775 whole entry): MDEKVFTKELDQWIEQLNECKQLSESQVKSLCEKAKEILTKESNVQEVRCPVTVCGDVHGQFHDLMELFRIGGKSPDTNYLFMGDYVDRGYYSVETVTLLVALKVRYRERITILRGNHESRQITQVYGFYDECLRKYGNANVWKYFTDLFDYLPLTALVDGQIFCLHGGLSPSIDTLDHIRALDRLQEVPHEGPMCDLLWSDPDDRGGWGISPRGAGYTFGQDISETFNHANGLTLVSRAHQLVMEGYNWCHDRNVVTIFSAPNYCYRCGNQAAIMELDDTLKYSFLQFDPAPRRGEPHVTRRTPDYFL
Description: (§5) Either purified PP2Ac (upstate), cell lysates or PP2A-holoenzymes, which were purified by immunoprecipitation using a PP2A-A-subunit antibody (Millipore), were incubated with or without 10 mM metformin or 10 nM okadaic acid for 1 hour. Afterwards PP2A phosphatase activity was determined using a malachite green assay kit (upstate) following the manufacturer's instructions.

[8] = test system: PP2A-holoenzymes; test: PP2A activity assay (malachite green), PP2A-holoenzymes immunopurified from HeLa cell lysates; format: biochemical; details: 10 mM metformin, 1 hour
Description: as §5

[9] = target: T2, α4-PP2Ac association (Homo sapiens, UniProt P67775+P78318); test: Co-immunoprecipitation of PP2Ac and V5-tagged α4 in HeLa cell lysates; format: binding; details: 2.5 mM metformin added to lysates of α4-V5 expressing HeLa cells
T2 construct: expressed in transfected cells; host or cells: HeLa
T2 sequence (P78318 whole entry): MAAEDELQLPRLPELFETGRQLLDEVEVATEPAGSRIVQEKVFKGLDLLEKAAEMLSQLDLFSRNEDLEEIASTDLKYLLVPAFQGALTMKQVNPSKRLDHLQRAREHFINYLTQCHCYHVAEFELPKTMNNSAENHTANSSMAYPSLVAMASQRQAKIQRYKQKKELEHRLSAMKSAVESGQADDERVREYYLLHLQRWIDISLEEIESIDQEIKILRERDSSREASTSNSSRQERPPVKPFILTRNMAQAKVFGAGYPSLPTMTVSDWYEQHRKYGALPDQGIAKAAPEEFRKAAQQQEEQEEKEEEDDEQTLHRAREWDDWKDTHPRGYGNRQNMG
T2 sequence (P67775 whole entry): as the sequence (P67775 whole entry) above

[10] = test system: S6; test: Brain S6 phosphorylation in mice fed metformin in the drinking water; format: in vivo, mouse; details: 5 mg/ml in the drinking water for 16-24 days
Description: as §4
(§6) Mice were decapitated and brains were rapidly dissected in nitrogen. […]
as §3, with “Proteins were resolved on 8 or 10% SDS gels and blotted onto PVDF-membranes (Roche).” left out, “Statistical analyses were performed using SigmaStat software package (v 3.0, SPSS, USA). For timecourse or dose-response studies, data were analyses by one-way ANOVA with post hoc Dunnett's or Bonferonni test to accommodate for multiple comparisons. A Student's t-test was used for two-group comparisons, as appropriate.” left out

[11] = test system: AMPK; test: Brain AMPK phosphorylation in mice fed metformin in the drinking water; format: in vivo, mouse; details: 5 mg/ml in the drinking water for 16-24 days
Description: as §4, §6
as §3, with “Proteins were resolved on 8 or 10% SDS gels and blotted onto PVDF-membranes (Roche).” left out, “Statistical analyses were performed using SigmaStat software package (v 3.0, SPSS, USA). For timecourse or dose-response studies, data were analyses by one-way ANOVA with post hoc Dunnett's or Bonferonni test to accommodate for multiple comparisons. A Student's t-test was used for two-group comparisons, as appropriate.” left out

[12] = test system: tau; test: Brain tau phosphorylation in mice fed metformin in the drinking water; format: in vivo, mouse; details: 5 mg/ml in the drinking water for 16-24 days
Description: as §4
Mice were decapitated and brains were rapidly dissected in nitrogen. Brains were homogenized in ice-cold lysis buffer containing 10 mmol/l Tris pH 7.5, 150 mM NaCl, 1 mM EDTA, 1 mM EGTA, 1% NP40, protease inhibitors(complete mini, Roche), phosphatase inhibitors (PhosStop, Roche). Lysates were sonicated and centrifuged at 25000 g for 10 min at 4° C.
as §3

[13] = dosages applied to patients with Type II Diabetes; cited from earlier work
[14] = 2 mg/ml in the drinking water fed to mice for 6 days; cited from earlier work
[15] = 2.5 mM, different time intervals, observed after 2-4 hours

## CN(C)C(=N)N=C(N)N [metformin, Metformin]
[1]; 10 nM okadaic acid prior to 2.5 mM metformin, 4 hours
  effect on Ser202 phosphorylation of okadaic acid treated cells: no effect
[1]; 100 nM, longer treatment (>24 hours)
  phosphorylation of Ser202: decreased slightly
[1]; 1 μM fostriecin prior to 2.5 mM metformin, 4 hours
  effect on Ser202 phosphorylation of fostriecin pre-treated cells: did not have any effect
[1]; 10 μM, longer treatment (>24 hours)
  phosphorylation of Ser202: significantly reduced
[1]; 2.5 mM metformin alone over 4 hours
  phosphorylation of Ser202: decreased significantly
[1]; 2.5 mM over time (Ser202, Ser262, Ser356), increasing concentration over 4 hours (Ser202)
  de-phosphorylation of PP2A dependent tau epitopes, dependence on time and dosage: increased with time (FIG. 2a) and dosage
[1]; [15]
  phosphorylation of PP2A dependent tau epitope Ser202: significant decrease
  phosphorylation of PP2A dependent tau epitope Ser262: significant decrease
  phosphorylation of PP2A dependent tau epitope Ser356: significant decrease
[1]; 2.5 mM, increasing time intervals
  phosphorylation of the PP2A insensitive epitope Ser396: did not change
[1]; 2.5 mM, medium without insulin
  dephosphorylation of tau (Ser 202): strong dephosphorylation effect
[2]
  phosphorylation of human tau at Ser 202: reacted in the same way
[3]; 2.5 mM, within 4 h of exposure
  S6 phosphorylation (S241/244): significant dephosphorylation
[3]; increasing concentrations of metformin, 16 hours
  S6 phosphorylation (S241/244): dose dependent decrease
[4]
  ability to dephosphorylate S6: clearly apparent
[5]
  phosphorylation status of p70S6kinase: Results were confirmed
[5]; listed as Metformin
  phosphorylation status of p70S6kinase: decrease of pS6kinase phosphorylation
[6]
  ACC phosphorylation (Ser79): neither metformin (FIG. 4a) nor phenformin (FIG. 12) had an effect
[7]
  PP2A activity of purified PP2Ac: no influence
[8]
  activity of the immunopurified PP2A protein complex: significantly increased
[9]
  amount of PP2Ac associated with α4: dissociation of α4 from PP2Ac
[10]
  brain S6 phosphorylation: significantly de-phosphorylated
[11]
  brain AMPK phosphorylation (pThr 172): no induction
[12]
  brain de-phosphorylated form of tau at position Ser 202 (tau-1 antibody): increase
  brain tau Ser202 phosphorylation: significant decrease
  brain tau Ser262 phosphorylation: significant decrease
  brain tau Ser 396 phosphorylation (PP2A independent epitope): no effect
[13]
  peak plasma concentrations: around 12 μM
[14]
  level of metformin in the brain: 1000 nM
